Values joined by “and” are separate entries in the source; they are usually repeats but may differ in a detail not shown here. Identical values can stand only once. “Also recorded” adds a separate entry of the source.
What was measured:
Daudi cells [1] = assay: KILR ADCC killing assay: KILR-transfected Daudi cells with purified NK cells (% dead cells); assay type: cell-based; conditions: for % dead cells, KILR ADCC killing assay: KILR Daudi cells with purified NK cells, duplicate columns
From the text: In some embodiments, CD38-ABT ARMs bind to target cells and antibodies, e.g., human antibodies. In some embodiments, such ternary structures present antibodies to effector cells such as NK cell and bind to, e.g., CD16a receptors. […] Daudi cells were transfected with KILR reporter construct (DiscoverX #97-0002). An attenuated lentivirus was designed to deliver a Moloney Murine Leukemia Virus (MMLV) engineered to drive expression of a housekeeping gene tagged with Enhanced ProLabel (ePL) a beta-Galactosidase (beta-gal) reporter fragment. This construct was designed to remain inside cells. Death leads to the release of the KILR reporter protein into the medium. Detection reagent (DiscoverX #97-0001L) contained the complementing beta-gal reporter fragment enzyme acceptor (EA). The two components combined to generate a chemiluminescent signal.

NK cells = assay: Depletion of CD38-expressing effector cells: purified NK cells, 18 h, Zombie viability dye; assay type: cell-based, human; conditions: I-9 300 nM-10 nM, Daratumumab 3 ug/mL-0.1 ug/mL, IvIG 10 ug/mL, 18 h (FIG. 4)
From the text: In some embodiments, provided technologies provides various advantages compared to existing CD38-based technologies, e.g., those using CD38 antibodies. […] As appreciated by those skilled in the art, various technologies can be utilized to assess depleting of CD38-expressing effector cells. In one example, NK cells were purified from frozen stock using 3×10^7 PBMC preparations ([…] technologies) using EasySep™ Human NK cell Isolation Kit […] Technologies (cat #17955) according to manufacturer's instructions. NK cells were plated at the density of 2×10^6 cells per mL of OPTIMEM media, in a 100 uL volume per well of round bottom 96 well plates. Daratumumab was added to a final concentration range of 3 ug/mL to 0.1 ug/mL. […] IvIG was used at a final concentration of 10 ug/mL. Cells were mixed by pipetting up and down and incubated for 18 h at 37° C. At the end of the incubation period, cells were centrifuged at 400 g for 5 min and re-suspended in PBS. Following this, cells were stained with 1 uM Zombie viability dye (Biolegend, catalog #423111) according to manufacturer's instructions and incubated for 15 minutes at room temperature. […] Cells were analyzed on BD FACSCelesta flow cytometer (BD Biosciences). […] Percentages of Zombie green positive NK cells were analyzed and graphed using GraphPad Prism software.

[2] = test system: Effector cells (ADCC reporter cells) with Daudi cells; assay: ADCC reporter assay: Daudi cells, IVIG and ADCC reporter effector cells (luciferase, RLU); assay type: cell-based; conditions: IVIG; for Luminescence, ADCC reporter assay: duplicate columns
Experimental: Daudi (ATCC CCL-213) cells were resuspended in Opti-MEM (Thermo Fisher Scientific #31985070), counted (Life Technologies Countless II cell counter) and plated (5,000 cells in 25 uL/well; Corning plates: 3917). Compounds w diluted in DMSO (MP 191418) to 1000× the starting concentration used in the assay into a 96 well polypropylene plate (Corning 3357). They were then serially diluted in ½ log increments to generate 8 concentrations in DMSO (assay dependent). These DMSO stocks were then step diluted 1/250 into Opti-MEM. Step diluted compound range was then added into the polypropylene assay plate 25 uL/well. The human antibody solution (Grifols IVIG Fleogogamma #61953-0005-2) was diluted to 40 ug/mL and added 25 uL/well. Effector cells (ADCC reporter cells—Promega kit: G7018) were added 37,500 in 25 uL/well. The assay was then incubated 18 h at 37° C. Following the induction period, the plate was equilibrated to 25° C. followed the addition of the luciferase substrate (75 uL/well, 1 vial in 10 mL of Bio-Glo assay buffer, Promega kit: G7018). The luminescence was measured (Biotek Synergy H1 microplate reader).

Daudi cells [3] = assay: Ternary binding assay: recruitment of PE-labeled human IgG1k to Daudi cells (flow cytometry, MFI); assay type: cell-based; conditions: duplicate columns
Experimental: Various technologies can be utilized to assess and/or characterize recruitment of antibodies to target cells, e.g., cancer cells. One such assay is a ternary binding assay. An exemplary protocol is described herein. Compounds were diluted in DMSO (MP 191418) to 1000× the starting concentration used in the assay into a 96 well polypropylene plate (Corning 3357). They were then serially diluted in ½ log increments to generate 8-12 concentrations in DMSO (assay dependent). These DMSO stocks were then step diluted 1/100 into PBS (VWR Cat. #20012043). Step diluted compound range was then added into the polypropylene assay plate 1/10 the volume of the assay volume. Daudi (ATCC CCL-213), a non-adherent cell line, were counted and centrifuged and resuspended at a concentration of 100,000 cells per 90 ul in Flow buffer: 1% BSA (American Bio AB01088-00100); 0.5 mM EDTA (VWR 45001-122); PBS (VWR Cat. #20012043) with 11.1 ug/mL human IgG1k Phycoerythrin labeled (SouthernBiotech #0151K-09 PE). The cells were then added into the polypropylene plate with the step diluted compounds and incubated at 37° C. for 30 min. At the end of the incubation, the cells were centrifuged and washed 2× with How buffer containing 0.5% Tween 20 (BP337-500). Samples were analyzed on a BD FacsCelesta. Mean fluorescence was analyzed using Graphpad Prism and curves were fit using log(inhibitor) vs. response—Variable slope (four parameters).

SMILES: CCCCC[C@@H]1NC(=O)[C@H](CCCNC(=N)N)NC(=O)[C@H](C)NC(=O)CSC[C@@H](C(=O)NCCOCCOCCOCCOCCOCCOCCn2nnc3c2CCC2C(CC3)C2COC(=O)N2CCC(C(=O)NCC(=O)N[C@H](CCC(=O)N[C@H](CCC(=O)N[C@H](CCC(=O)NCCCCCCCCCCCC(=O)O)C(=O)N[C@H](CCC(=O)N[C@H](CCC(=O)NCC(=O)NCC(=O)N[C@@H](CC(=O)O)C(=O)N[C@H]3CSSC[C@@H](C(=O)N[C@H](C(=O)O)[C@@H](C)O)NC(=O)[C@H](Cc4c[nH]c5ccccc45)NC(=O)[C@H](C(C)C)NC(=O)[C@H](CC(C)C)NC(=O)[C@H](CCC(=O)O)NC(=O)CNC(=O)[C@H](CC(C)C)NC(=O)[C@H](Cc4c[nH]cn4)NC(=O)[C@H](Cc4c[nH]c5ccccc45)NC(=O)[C@H](C)NC3=O)C(=O)O)C(=O)O)C(=O)O)C(=O)O)CC2)NC(=O)[C@H](CC(=O)O)NC(=O)[C@H](CCCCC)NC(=O)[C@H](Cc2ccc(-c3ccccc3)cc2)NC(=O)[C@H](CC(C)C)NC(=O)[C@H](C(C)C)NC(=O)CNC(=O)[C@H](CC(=O)O)NC(=O)[C@H](Cc2c[nH]cn2)NC(=O)[C@H](Cc2ccc(O)cc2)NC1=O (stereo partly shown) [I-9]
- EC50 (Daudi cells [1]; KILR Daudi cells, purified NK cells, one set of experiments (FIG. 3)): 6.7 nM
- % dead cells, KILR ADCC killing assay (Daudi cells [1]; compound 0.3 nM): 5.1% and 5.5%
- % dead cells, KILR ADCC killing assay (Daudi cells [1]; compound 1 nM): 4.8% and 4.7%
- % dead cells, KILR ADCC killing assay (Daudi cells [1]; compound 3 nM): 5%
- % dead cells, KILR ADCC killing assay (Daudi cells [1]; compound 10 nM): 5.3% and 5.7%
- % dead cells, KILR ADCC killing assay (Daudi cells [1]; compound 30 nM): 6.1% and 6.9%
- % dead cells, KILR ADCC killing assay (Daudi cells [1]; compound 100 nM): 6.6% and 7.4%
- % dead cells, KILR ADCC killing assay (Daudi cells [1]; compound 300 nM): 7.3% and 8.1%
- % dead cells, KILR ADCC killing assay (Daudi cells [1]; compound 1000 nM): 6.8% and 6.7%
- Depletion of CD38-expressing effector cells (NK cells) (NK cells): did not deplete CD38-expressing effector cells; also recorded: do not significantly deplete effector cells
- EC50 ([2]; ADCC reporter assay): 5.5 nM
- EC70 ([2]; ADCC reporter cells, 18 h, one set of experiment (FIG. 2)): about 0.92 nM
- Luminescence, ADCC reporter assay ([2]; compound 0.3 nM, 18 h): 18458 RLU and 20362 RLU
- Luminescence, ADCC reporter assay ([2]; compound 1 nM, 18 h): 20777 RLU and 20342 RLU
- Luminescence, ADCC reporter assay ([2]; compound 3 nM, 18 h): 24006 RLU and 24206 RLU
- Luminescence, ADCC reporter assay ([2]; compound 10 nM, 18 h): 35274 RLU and 44761 RLU
- Luminescence, ADCC reporter assay ([2]; compound 30 nM, 18 h): 55170 RLU and 59273 RLU
- Luminescence, ADCC reporter assay ([2]; compound 100 nM, 18 h): 60746 RLU and 68867 RLU
- Luminescence, ADCC reporter assay ([2]; compound 300 nM, 18 h): 55313 RLU and 76306 RLU
- Luminescence, ADCC reporter assay ([2]; compound 1000 nM, 18 h): 51790 RLU and 65856 RLU
- MFI, recruitment of PE-labeled human IgG1k to Daudi cells (Daudi cells [3]; compound 0.03 nM): 2297 and 2037
- MFI, recruitment of PE-labeled human IgG1k to Daudi cells (Daudi cells [3]; compound 0.1 nM): 2514 and 2495
- MFI, recruitment of PE-labeled human IgG1k to Daudi cells (Daudi cells [3]; compound 0.3 nM): 2861 and 2727
- MFI, recruitment of PE-labeled human IgG1k to Daudi cells (Daudi cells [3]; compound 1 nM): 3063 and 2925
- MFI, recruitment of PE-labeled human IgG1k to Daudi cells (Daudi cells [3]; compound 3 nM): 4268 and 4210
- MFI, recruitment of PE-labeled human IgG1k to Daudi cells (Daudi cells [3]; compound 10 nM): 7133 and 6933
- MFI, recruitment of PE-labeled human IgG1k to Daudi cells (Daudi cells [3]; compound 30 nM): 10630 and 8384
- MFI, recruitment of PE-labeled human IgG1k to Daudi cells (Daudi cells [3]; compound 100 nM): 9899 and 10608
- MFI, recruitment of PE-labeled human IgG1k to Daudi cells (Daudi cells [3]; compound 300 nM): 7835 and 7873
- MFI, recruitment of PE-labeled human IgG1k to Daudi cells (Daudi cells [3]; compound 1000 nM): 4929 and 5108
- MFI, recruitment of PE-labeled human IgG1k to Daudi cells (Daudi cells [3]; compound 3000 nM): 4383 and 4301

Reference: patent publication US20230028880A1, “CD38-BINDING AGENTS AND USES THEREOF” (Biohaven Therapeutics Ltd., priority 2019, published 2023)
